According to patent US20030181380A1, “Modulating lymphoid commitment and survival” (priority 2002, published 2003):
Residues, ends and D or L forms follow the SMILES beside them. *: point of attachment. Cbz = O=C(OCc1ccccc1)*; CH2F = FC*

Experiments:
[1] = target: Notch receptors on human B-ALL cell line JM-1; experiment: cell-based or functional assay
V9 cells = experiment: AnnexinV staining of ICN1-transduced V9 cells cultured with caspase inhibitor; assay type: cell-based, murine
Description: Apoptosis is frequently mediated by caspases, a family of cysteine proteases, whose activation leads to cell death. To further characterize the ICN1-induced cell death, ICN1-transduced V9 cells were cultured with either the general caspase inhibitor, zVAD (50 μM in DMSO), or DMSO alone (zVAD vehicle only), and analyzed 22 and 44 hours later (FIG. 3B). When cultured in control media (no zVAD), the great majority of GFP+ cells became AnnexinV positive by 22 hours post transduction, and few GFP positive cells remained at 44 hours (FIG. 3B, middle panel).
This may due to the incomplete inhibition of zVAD on the targeted caspases or, alternatively, caspase-independent pathways also contribute the B cell death.

JM-1 cells = experiment: Tamoxifen-inducible ICN1 (ICN1-ER-BD) in JM-1 subclones: PI, AnnexinV, RT-PCR; assay type: cell-based, human; conditions: JM-1 subclones with tamoxifen-inducible ICN1
Description: To further characterize this effect, a retroviral vector containing a tamoxifen-inducible-ICN1 vector co-expressing GFP (ICN1+GFP) was stably transduced into three of the JM-1 human B-ALL leukemia/lymphoma′cell lines. To accomplish this, the estrogen receptor hormone-binding domain (ER-BD) was fused via a linker to ICN1. This fusion product was expressed on the MigR1 (MSCV-based) retroviral vector, which co-expresses GFP. JM-1 cells were transduced with this construct and subclones were selected for high expression. The GFP positive populations were sub cloned and individual clones expressing various levels of ICN1+GFP were analyzed after exposure to tamoxifen (FIG. 18A). Subclone JM-1.2 was exposed to tamoxifen and RT-PCR was performed (FIG. 18B). Growth arrest was shown by PI staining, apoptosis was measured by AnnexinV staining, and increased levels of Hairy expression were measured by RT-PCR. The percentage of non-GO/G1 cells was normalized to pre-treatment levels by duplicate experiments. The results of three experiments averaged ± standard deviation compared with EtOH control, and the average of duplicate experiments was relative to GAPDH expression and normalized to day 0 (pre-treatment) levels.
This effect was similar to the results seen with non-induced constructs.

human Jagged1 (from UniProt P78504 34-1218) (ligand)
Hairy expression in B-ALL cells by RT-PCR at 24 hours of co-culture [1]: 5 fold

CC(NC(=O)C(NC(=O)OCc1ccccc1)C(C)C)C(=O)NC(CC(=O)O)C(=O)CF (stereo not drawn) [zVAD] (Cbz-Val-Ala-Asp-CH2F; configuration not given here)
ICN1-transduced cells becoming AnnexinV positive (V9 cells; 50 μM zVAD, 22 hours): only a few
protection of V9 cells from apoptosis (V9 cells; zVAD, up to 44 hours post-transduction): only partially protected

CC/C(=C(\c1ccccc1)c1ccc(OCCN(C)C)cc1)c1ccccc1 [tamoxifen]
cell cycle and apoptosis after induction (JM-1 cells): cell cycle (growth) arrest and apoptosis

human Jagged2 (from UniProt Q9Y219 24-1238) (ligand)
Hairy expression in B-ALL cells by RT-PCR at 24 hours of co-culture [1]: 5 fold
